Here are results for four compounds from DBAASP.

≈ marks a conversion by molar mass, not a printed value. Bounds are passed on as bounds.

Common to all, as to test: ≥ marks a high value that may be exact or a test limit, other limits are often not marked, values filed in µg/mL are converted to µM
The subject of test [1] is Candida albicans ATCC 18804.
Test [2] relates to Escherichia coli ATCC 25922.
The subject of test [3] is Staphylococcus aureus ATCC 25923.
The subject of test [4] is Bacillus megaterium KCTC 1096.
In test [5] the test system is Bacillus subtilis KCTC 1918.
For test [6], the system named is Escherichia coli KCTC 1682.
In test [7] the test system is Proteus vulgaris.
In test [8] the test system is Pseudomonas aeruginosa KCTC 1637.
The subject of test [9] is Staphylococcus aureus KCTC 1621.
Test [10] deals with Acinetobacter baumannii ATCC 19606.
Test [11] has as its system Acinetobacter baumannii.
Test [12] has as its system Bacillus subtilis DSM 4181.
The subject of test [13] is Burkholderia cepacia.
The subject of test [14] is Enterococcus faecalis ATCC 29212.
Test [15] deals with Escherichia coli BW25113.
Test [16] has as its system Escherichia coli HB101.
The test system of test [17] is Escherichia coli J2210.
The test system of test [18] is Escherichia coli JJ2489.
The test system of test [19] is Escherichia coli JW0013.
Test [20] concerns Escherichia coli JW0368 ΔsbmA.
For test [21], the system named is Escherichia coli JW2778 ΔygdD.
The subject of test [22] is Escherichia coli MC1041.
Test [23] concerns Escherichia coli ML-35.
Test [24] concerns Escherichia coli.
For test [25], the system named is Klebsiella pneumoniae ATCC 700603.
Test [26] relates to Klebsiella pneumoniae.
The subject of test [27] is Pseudomonas aeruginosa ATCC 27853.
In test [28] the test system is Pseudomonas aeruginosa.
The test system of test [29] is Salmonella enterica serovar Typhimurium.
Test [30] relates to Salmonella enterica subsp. enterica serovar Enteritidis MH91989.
The subject of test [31] is Salmonella enterica subsp. enterica serovar Typhimurium ATCC 14028.
In test [32] the test system is Salmonella typhimurium SL1344.
Test [33] concerns Serratia marcescens ATCC 8100.
In test [34] the test system is Staphylococcus epidermidis ATCC 12228.
The subject of test [35] is Stenotrophomonas maltophilia ATCC 13637.
Test [36] concerns Candida albicans.
The test system of test [37] is Escherichia coli DC2.
In test [38] the test system is Escherichia coli KF130.
Test [39] has as its system Escherichia coli UB1005.
Test [40] has as its system Pseudomonas aeruginosa H374.
In test [41] the test system is Pseudomonas aeruginosa H744.
The test system of test [42] is Pseudomonas aeruginosa PAO1.
In test [43] the test system is Salmonella enterica subsp. enterica serovar Typhimurium ATCC 14028s.
In test [44] the test system is Staphylococcus aureus R147.
In test [45] the test system is Staphylococcus aureus SAP 0017.
The test system of test [46] is Staphylococcus epidermidis.

Turning to `CC[C@H](C)[C@H](NC(=O)[C@H](C)NC(=O)[C@H](CCC(=O)O)NC(=O)[C@H](CO)NC(=O)[C@H](Cc1ccccc1)NC(=O)[C@H](CCCCN)NC(=O)[C@H](Cc1ccccc1)NC(=O)[C@H](CO)NC(=O)[C@H](CCC(=O)O)NC(=O)[C@H](C)NC(=O)[C@@H](NC(=O)[C@H](CCCCN)NC(=O)[C@H](CCCCN)NC(=O)[C@@H](NC(=O)[C@@H](NC(=O)[C@H](CC(=O)O)NC(=O)[C@H](Cc1ccccc1)NC(=O)[C@H](CC(C)C)NC(=O)CN)[C@@H](C)CC)[C@@H](C)CC)[C@@H](C)CC)C(=O)N[C@@H](CCCCN)C(=O)N[C@@H](CCCCN)C(=O)N[C@H](C(=O)N[C@H](C(=O)N[C@@H](CC(=O)O)C(=O)N[C@@H](Cc1ccccc1)C(=O)N[C@@H](CC(C)C)C(=O)NCC(=O)O)[C@@H](C)CC)[C@@H](C)CC` [GLFDIIKKIAESFKFSEAIKKIIDFLG], the results for the MIC in [1], in test [2] and in test [3] were at least 128 µM, 128 µM (≈ 393 µg/mL) and over 128 µM, respectively.

In the case of `CC[C@H](C)[C@H](NC(=O)[C@H](CCCCN)NC(=O)[C@H](CCCCN)NC(=O)[C@H](Cc1ccccc1)NC(=O)[C@H](CC(C)C)NC(=O)[C@H](CCCCN)NC(=O)[C@H](Cc1c[nH]c2ccccc12)NC(=O)[C@@H](N)CCCCN)C(=O)N1CCC[C@H]1C(=O)N[C@@H](Cc1cnc[nH]1)C(=O)N[C@@H](CC(C)C)C(=O)N[C@@H](C)C(=O)N[C@@H](CCCCN)C(=O)N[C@@H](CCCCN)C(=O)N[C@@H](Cc1ccccc1)C(N)=O` [KWKLFKKIPHLAKKF], the minimum inhibitory concentration (MIC) in test [4] is 3.12 µM (≈ 5.97 µg/mL); in test [5], 0.78 µM (≈ 1.49 µg/mL); in test [6], 12.5 µM (≈ 23.9 µg/mL); in test [7] it was 1.56 µM (≈ 2.98 µg/mL); in [8], 12.5 µM (≈ 23.9 µg/mL); in [9], 6.25 µM (≈ 11.9 µg/mL).

As for `CC[C@H](C)[C@H](NC(=O)[C@H](CCCN=C(N)N)NC(=O)[C@@H](N)CCCN=C(N)N)C(=O)N[C@@H](CCCN=C(N)N)C(=O)N1CCC[C@H]1C(=O)N[C@@H](CCCN=C(N)N)C(=O)N1CCC[C@H]1C(=O)N1CCC[C@H]1C(=O)N[C@@H](CCCN=C(N)N)C(=O)N[C@@H](CC(C)C)C(=O)N1CCC[C@H]1C(=O)N[C@@H](CCCN=C(N)N)C(=O)N1CCC[C@H]1C(=O)N[C@@H](CCCN=C(N)N)C(=O)N1CCC[C@H]1C(=O)N[C@@H](CCCN=C(N)N)C(=O)O` [RRIRPRPPRLPRPRPR], the MIC is 32 µM (≈ 66.4 µg/mL) in [10]; 5.66 µM (≈ 11.7 µg/mL) in test [11]; 1 µM (≈ 2.08 µg/mL) in test [12]; at least 128 µM in [13]; over 64 µM in [14]; 1 µM (≈ 2.08 µg/mL) in [2]. Moreover, the MIC in test [15] was 0.06 µM (≈ 0.125 µg/mL); in test [16], 0.5 µM (≈ 1.04 µg/mL); in test [17], 0.12 µM (≈ 0.249 µg/mL); in [18] it was 0.12 µM (≈ 0.249 µg/mL); in test [19], 0.06 µM (≈ 0.125 µg/mL); in [20], 0.06 µM (≈ 0.125 µg/mL). In addition, the MIC in test [21] came out at 0.083 µM (≈ 0.172 µg/mL); in test [22], 0.06 µM (≈ 0.125 µg/mL); in test [23] it was 2 µM (≈ 4.15 µg/mL); in [24], 8 µM (≈ 16.6 µg/mL); in test [25], 4 µM (≈ 8.31 µg/mL); in test [26], 4 µM (≈ 8.31 µg/mL). Moreover, the MIC in test [27] is over 64 µM; in test [28], 90.5 µM (≈ 188 µg/mL); in test [29], 1 µM (≈ 2.08 µg/mL); in [30] it was 0.12 µM (≈ 0.249 µg/mL); in test [31] it was 1 µM (≈ 2.08 µg/mL); in test [32], 0.06 µM (≈ 0.125 µg/mL). In addition, the MIC in [33] was 8 µM (≈ 16.6 µg/mL); in test [3], over 128 µM; in test [34] it was over 64 µM; in [35], at least 64 µM.

Regarding `CC(C)[C@@H]1NC(=O)[C@H](CCCN=C(N)N)NC(=O)[C@H](Cc2ccccc2)NC(=O)[C@@H](NC(=O)[C@H](Cc2c[nH]c3ccccc23)NC(=O)[C@H](CCCN=C(N)N)NC(=O)[C@@H](N)CCCN=C(N)N)CSSC[C@@H](C(=O)N[C@@H](CCCN=C(N)N)C(N)=O)NC(=O)[C@H](CCCCN)NC(=O)[C@H](CCCN=C(N)N)NC(=O)[C@H](Cc2ccc(O)cc2)NC(=O)[C@@H]2CSSC[C@H](NC1=O)C(=O)N[C@@H](Cc1ccc(O)cc1)C(=O)N[C@@H](CCCN=C(N)N)C(=O)NCC(=O)N[C@@H](CCCN=C(N)N)C(=O)N[C@@H](Cc1ccccc1)C(=O)N2` [RRWCFRVCYRGRFCYRKCR], the MIC in [36] was determined as 0.765 µM (≈ 2 µg/mL); in test [14], 0.191 µM (≈ 0.499 µg/mL); in test [37], 0.0956 µM (≈ 0.25 µg/mL); in test [38], 0.0956 µM (≈ 0.25 µg/mL); in [39], 0.0956 µM (≈ 0.25 µg/mL); in [40] it was 0.191 µM (≈ 0.499 µg/mL). The MIC turned out to be 0.382 µM (≈ 0.998 µg/mL) in test [41]; 0.382 µM (≈ 0.998 µg/mL) in test [42]; 0.191 µM (≈ 0.499 µg/mL) in test [43]; 0.382 µM (≈ 0.998 µg/mL) in test [3]; 0.382 µM (≈ 0.998 µg/mL) in test [44]; 0.382 µM (≈ 0.998 µg/mL) in test [45]. In test [46], the minimal inhibitory concentration (MIC) was 0.0956 µM (≈ 0.25 µg/mL).
